Converted amounts (≈) assume the structure as drawn.

For this data set the following is noted: buffer; pH 7.4; 200.0 µM.
`CNc1oc(-c2ccccc2)nc1S(=O)(=O)c1ccc(C)cc1`: the solubility (kinetic) – broadly, solubility judged after dilution from a stock solution rather than from solid – turned out to be 5.3 µg/mL (≈ 16.1 µM).

`CC(C)C(=O)Nc1nnc(SCC(=O)NCC2CCCO2)s1` (stereo not given) showed a solubility (kinetic) of more than 51.7 µg/mL.

Molecule `O=C(COC(=O)c1ccc(Cl)nc1)Nc1ccc2c(c1)CCC2` had a solubility (kinetic) of 5.3 µg/mL (≈ 16 µM).

On to `O=C1/C(=C/c2ccccc2Cl)N2CCC1CC2`, for which the solubility (kinetic) stood at 22.8 µg/mL (≈ 92 µM).

With `CN(Cc1ccccc1)C(=O)c1cc(=O)[nH]c2ccccc12`, the kinetic solubility was more than 43.9 µg/mL.

On to `O=C(O)c1cc([N+](=O)[O-])c(Sc2nc3ccccc3[nH]2)c([N+](=O)[O-])c1`, for which the kinetic solubility is more than 54 µg/mL.

Regarding `CCC(C)NC(=O)C1c2ccccc2Oc2ccccc21` (stereo not given), the solubility (kinetic) amounted to 1.9 µg/mL (≈ 6.75 µM).

Take `CN(CC(=O)Nc1ccc(OC(F)(F)F)cc1)C(=O)/C=C/c1ccco1`: the solubility (kinetic) was determined as 7.7 µg/mL (≈ 20.9 µM).

In the case of `CN(C(=O)CC1C(=O)NCCN1Cc1ccc(F)cc1)C1CCOCC1` (stereo not given), the solubility (kinetic) was more than 54.5 µg/mL.

In turn, `O=c1c2cc(NC(=S)NC3CC3)ccc2nc2n1CCCCC2` gave a solubility (kinetic) of 34.7 µg/mL (≈ 106 µM).

`COC(=O)CSc1ncc(S(=O)(=O)c2ccccc2)c(=O)[nH]1` came in with a kinetic solubility of more than 51.1 µg/mL.

Turning to `Cl.O[C@@H](c1cc(C(F)(F)F)nc2c(C(F)(F)F)cccc12)[C@H]1CCCCN1`, the solubility (kinetic) was more than 62.2 µg/mL.

In turn, `C=CCn1c(-c2ccccc2)nc(=S)c2c1CCCC2` registered a solubility (kinetic) of more than 42.4 µg/mL.

Turning to `COc1ccc(CCC(=O)NCC23CC4CC(CC(C4)C2)C3)cc1`, the kinetic solubility was determined as 30.7 µg/mL (≈ 93.7 µM).

Molecule `CC(C)(CN=C1NS(=O)(=O)c2ccccc21)CNC(=O)c1ccccc1` yielded a solubility (kinetic) of more than 55.7 µg/mL.

The molecule `COc1cccc(C(=O)CC(C#N)c2ccc(F)cc2)c1` (stereo not given) had a kinetic solubility of 16 µg/mL (≈ 56.5 µM).

The molecule `CC(C)(C)c1ccc(Cn2c(=O)cnc3ccccc32)cc1` came in with a kinetic solubility of 0.4 µg/mL (≈ 1.37 µM).

As to `O=C(COC(=O)c1cc(S(=O)(=O)N2CCOCC2)c(Cl)cc1Cl)NCc1ccco1`, the solubility (kinetic) was more than 71.6 µg/mL.

On to `O=C(Nc1ccccc1C(=O)Nc1ccc(F)cc1)c1ccco1`, for which the solubility (kinetic) turned out to be 0.9 µg/mL (≈ 2.78 µM).

Consider `CCc1ccc2nc(N3CCN(C(=O)C(C)(C)C)CC3)sc2c1`, for which the solubility (kinetic) was 2 µg/mL (≈ 6.03 µM).

The molecule `O=C(NC1CC1)c1cccc(Oc2ccccc2)c1` came in with a kinetic solubility of more than 38 µg/mL.

`COC(=O)CCC(=O)Nc1cccc([N+](=O)[O-])c1` came in with a kinetic solubility of more than 37.8 µg/mL.

In turn, `Cc1ccc(NC(=O)C2CCN(c3nc(C)cc(C)n3)CC2)cc1` displayed a kinetic solubility of 2.4 µg/mL (≈ 7.4 µM).

`COc1cc2nc(Nc3ccc(F)cc3)nc(N)c2cc1OC.Cl` yielded a kinetic solubility of more than 52.6 µg/mL.

As for `O=C(Cc1ccc(Cl)cc1Cl)NC1CCCCCC1`, the solubility (kinetic) amounted to 2.2 µg/mL (≈ 7.33 µM).

`O=C(NCCc1ccccc1)c1cnc2n(c1=O)CCS2` had a kinetic solubility of 45 µg/mL (≈ 149 µM).

`CNC(=O)COC(=O)c1c2c(nc3ccccc13)CCC2`: the kinetic solubility turned out to be 39.1 µg/mL (≈ 138 µM).

Take `O=C(NCCOc1ccccc1)c1ccccc1[N+](=O)[O-]`: the kinetic solubility was more than 42.9 µg/mL.

`O=C(Nc1nccs1)C1CC(=O)N(CCc2ccc(F)cc2)C1` (stereo not given) registered a solubility (kinetic) of more than 50 µg/mL.

In the case of `N#C/C(=C\c1cc([N+](=O)[O-])ccc1Cl)C(N)=O`, the kinetic solubility is 33.5 µg/mL (≈ 133 µM).

For `CSc1nc(NCC(C)O)c2c3c(sc2n1)CN(C)CC3` (stereo not given), the solubility (kinetic) is 44.7 µg/mL (≈ 138 µM).

On to `O=C1Cc2cc(S(=O)(=O)NCc3ccc(F)cc3)ccc2N1`, for which the kinetic solubility worked out at 16.7 µg/mL (≈ 52.1 µM).

Turning to `O=C(CSc1nc2ccccc2c(=O)n1CCCN1CCOCC1)Nc1ccccc1OC(F)F`, the kinetic solubility is more than 75.7 µg/mL.

With `CCCC(=O)N1CCC(O)(c2cccc(F)c2)CC1`, the solubility (kinetic) was more than 39.8 µg/mL.

`COc1cc([N+](=O)[O-])ccc1NC(=O)Nc1ccc2c(c1)OCCO2` registered a solubility (kinetic) of less than 0.2 µg/mL.

For the molecule `CC(=O)C(/C=N/c1ncc(C(F)(F)F)cc1Cl)=C(\C)O`, the kinetic solubility amounted to 1.3 µg/mL (≈ 4.24 µM).

Take `CN(CCN1CCOCC1)Cc1nc(-c2cccs2)no1`: the kinetic solubility came out at 44.5 µg/mL (≈ 144 µM).

As for `N#Cc1ccccc1NC(=O)COC(=O)/C=C/c1ccc(S(=O)(=O)N2CCOCC2)cc1`, the kinetic solubility stood at 5.7 µg/mL (≈ 12.5 µM).

Molecule `COc1ccc(/C=N/NC(=O)CNC(=O)c2ccncc2)cc1` showed a solubility (kinetic) of more than 46.8 µg/mL.

In turn, `Cc1cccc(C(=O)NC2CC3CCC(C2)N3C)c1` (stereo not given) registered a solubility (kinetic) of more than 38.8 µg/mL.

Turning to `COc1ccc(S(=O)(=O)N2CC(=O)Nc3ccccc32)cc1Cl`, the kinetic solubility is more than 52.9 µg/mL.

Turning to `O=C(/C=C/NCc1cccnc1)c1ccc(Br)cc1`, the kinetic solubility is more than 47.6 µg/mL.

With `CN1CCC(N(C)C(=O)c2cccc(S(=O)(=O)N3CCc4ccccc43)c2)CC1`, the kinetic solubility is more than 62 µg/mL.

As for `Cc1cccn2c(=O)c(/C=C(\C#N)C(N)=O)c(N3CCCCCC3)nc12`, the solubility (kinetic) is 5.1 µg/mL (≈ 14.5 µM).

Molecule `CC1Cc2ccccc2N1C(=O)/C=C/c1cccc(F)c1` (stereo not given) showed a solubility (kinetic) of 6.2 µg/mL (≈ 22 µM). This solubility kinetic and that of the molecule before are within 1.5-fold of each other.

In the case of `COC(=O)CC(c1ccccc1F)N1Cc2ccccc2C1=O` (stereo not given), the solubility (kinetic) is more than 47 µg/mL.

Take `CC1CCc2sc(C(=O)NC(C)C3CCCO3)cc2C1` (stereo not given): the solubility (kinetic) is more than 44 µg/mL.

For `O=C1CN(C(=O)c2ccccc2C(=O)O)c2ccccc2N1`, the solubility (kinetic) was more than 44.4 µg/mL.

Molecule `CCOC(=O)C1C(c2ccccc2)NC(=S)NC1(C)O` (stereo not given) registered a solubility (kinetic) of 41.6 µg/mL (≈ 141 µM).

For the molecule `Cl.OC(c1ccc(Cl)cc1)C(CN1CCOCC1)c1ccccc1` (stereo not given), the kinetic solubility is more than 55.2 µg/mL.

These data come from PubChem BioAssay AID1996.
